According to patent US5807535A, “Metal complexes of hydroxyaryl containing aminocarboxylic acid chelating agents” (Australian Nuclear Science & Technology Organisation, priority 1992, dated 1998):
Like-named read-outs stand apart in the source and are kept apart here.

What was measured:
[1] = Biodistribution of 99mTc complexes in rats; assay type: in vivo, Australian Albino Wistar Rats; settings: rats; for tissue uptake at 0.5 min / tissue uptake at 1 min / tissue uptake at 0.05 h / tissue uptake at 5 min / tissue uptake at 10 min: rat; for tissue uptake at 0.5 min: 30 sec
Procedure: A typical method of radiolabelling of the chelator was achieved by dissolving the chelator in a basic solution of saline. The pH was then adjusted to approx. 6 with HCl. Excess stannous chloride was added to the resultant solution followed by one equivalent volume of sodium ^99m TcO4 (10-50 mCi/ml). Final concentration of the chelator was approx. 1 mg/ml. The efficacy of labelling was determined by ITLC-SG. For each product only one main radiochemical species was observed. Each complex was diluted to 15 μCi/100 μl with saline. […] (See FIGS. 1A and 1B).
Selected data from biodistribution results of technetium-99m complexes of No. 1, No. 2 and No 4 in the liver, kidney and blood at 3 minutes is tabulated below.

[2] = Biodistribution of 67Ga complexes in mice; assay type: in vivo, balb/c mice
Procedure: To ligand (50 μL, 10 mg/mL, 0.2 M NaOAc, […]) was added ^67 Ga citrate (18.5 MBq) and the resultant mixture diluted to 1 mL (0.2 M NaOAc, pH 7). The pH was adjusted to 12 with 1 M NaOH (20 μL) and heated at 40° C. for 40 min. The final volume was adjusted (to 5 mL) with saline and sterilised by filtering through a 0.22 μm filter.
Each animal was injected via tail vein with ^67 Ga complex (100 μL, ~3.7×10^5 Bq). Animals were sacrificed at various time intervals (5 animals per time point/6 time points). Data are illustrated in FIG. 26-30 and in Tables 13-17.
Each ^67 Ga-ligand complex has been evaluated in balb/c mice. […] (see FIG. 26-30).

[3] = blood, read-out: biodistribution blood
[4] = bone, read-out: biodistribution bone
[5] = brain, read-out: biodistribution brain
[6] = eyes, read-out: biodistribution eyes
[7] = heart, read-out: biodistribution heart
[8] = kidneys, read-out: biodistribution kidneys
[9] = liver, read-out: biodistribution liver
[10] = lungs, read-out: biodistribution lungs
[11] = muscle, read-out: biodistribution muscle
[12] = pancreas, read-out: biodistribution pancreas
[13] = skin, read-out: biodistribution skin
[14] = spleen, read-out: biodistribution spleen
[15] = stomach, read-out: biodistribution stomach
[16] = tail, read-out: biodistribution tail
[17] = thymus, read-out: biodistribution thymus
[18] = thyroid, read-out: biodistribution thyroid
[19] = total git, read-out: biodistribution tot GIT

tissue uptake at 0.5 min [1, 3]: 1.93 %ID/g
tissue uptake at 1 min [1, 3]: 1.71 %ID/g
tissue uptake at 0.05 h ([1]; blood, 3 minutes, selected data, read-out: Blood): 1.16 %ID/g
tissue uptake at 5 min [1, 3]: 0.83 %ID/g
tissue uptake at 10 min [1, 3]: 0.71 %ID/g
tissue uptake at 0.5 min [1, 4]: 0.31 %ID/g
tissue uptake at 1 min [1, 4]: 0.32 %ID/g
tissue uptake at 0.05 h ([1]; bone, 3 min, read-out: biodistribution bone): 0.26 %ID/g
tissue uptake at 5 min [1, 4]: 0.25 %ID/g
tissue uptake at 10 min [1, 4]: 0.19 %ID/g
tissue uptake at 0.5 min [1, 5]: 0.14 %ID/g
tissue uptake at 1 min [1, 5]: 0.09 %ID/g
tissue uptake at 0.05 h ([1]; brain, 3 min, read-out: biodistribution brain): 0.06 %ID/g
tissue uptake at 5 min [1, 5]: 0.05 %ID/g
tissue uptake at 10 min [1, 5]: 0.04 %ID/g
tissue uptake at 0.5 min [1, 6]: 0.19 %ID/g
tissue uptake at 1 min [1, 6]: 0.17 %ID/g
tissue uptake at 0.05 h ([1]; eyes, 3 min, read-out: biodistribution eyes): 0.18 %ID/g
tissue uptake at 5 min [1, 6]: 0.17 %ID/g
tissue uptake at 10 min [1, 6]: 0.13 %ID/g
tissue uptake at 0.5 min [1, 7]: 0.75 %ID/g
tissue uptake at 1 min [1, 7]: 0.67 %ID/g
tissue uptake at 0.05 h ([1]; heart, 3 min, read-out: biodistribution heart): 0.46 %ID/g
tissue uptake at 5 min [1, 7]: 0.33 %ID/g
tissue uptake at 10 min [1, 7]: 0.27 %ID/g
tissue uptake at 0.05 h ([1]; kidney, 3 minutes, selected data, read-out: Kidney): 4.12 %ID/g
tissue uptake at 0.5 min [1, 8]: 6.73 %ID/g
tissue uptake at 1 min [1, 8]: 6.55 %ID/g
tissue uptake at 0.05 h ([1]; kidneys, 3 min, read-out: biodistribution kidneys): 4.12 %ID/g
tissue uptake at 5 min [1, 8]: 2.87 %ID/g
tissue uptake at 10 min [1, 8]: 2.72 %ID/g
tissue uptake at 0.5 min [1, 9]: 1.73 %ID/g
tissue uptake at 1 min [1, 9]: 2.01 %ID/g
tissue uptake at 0.05 h ([1]; liver, 3 minutes, selected data, read-out: Liver): 1.54 %ID/g
tissue uptake at 5 min [1, 9]: 1.34 %ID/g
tissue uptake at 10 min [1, 9]: 0.76 %ID/g
tissue uptake at 0.5 min [1, 10]: 1.15 %ID/g
tissue uptake at 1 min [1, 10]: 1.13 %ID/g
tissue uptake at 0.05 h ([1]; lungs, 3 min, read-out: biodistribution lungs): 0.8 %ID/g
tissue uptake at 5 min [1, 10]: 0.54 %ID/g
tissue uptake at 10 min [1, 10]: 0.46 %ID/g
tissue uptake at 0.5 min [1, 11]: 0.28 %ID/g
tissue uptake at 1 min [1, 11]: 0.27 %ID/g
tissue uptake at 0.05 h ([1]; muscle, 3 min, read-out: biodistribution muscle): 0.26 %ID/g
tissue uptake at 5 min [1, 11]: 0.27 %ID/g
tissue uptake at 10 min [1, 11]: 0.15 %ID/g
tissue uptake at 0.5 min [1, 12]: 0.49 %ID/g
tissue uptake at 1 min [1, 12]: 0.51 %ID/g
tissue uptake at 0.05 h ([1]; pancreas, 3 min, read-out: biodistribution pancreas): 0.44 %ID/g
tissue uptake at 5 min [1, 12]: 0.44 %ID/g
tissue uptake at 10 min [1, 12]: 0.3 %ID/g
tissue uptake at 0.5 min [1, 13]: 0.37 %ID/g
tissue uptake at 1 min [1, 13]: 0.43 %ID/g
tissue uptake at 0.05 h ([1]; skin, 3 min, read-out: biodistribution skin): 0.49 %ID/g
tissue uptake at 5 min [1, 13]: 0.53 %ID/g
tissue uptake at 10 min [1, 13]: 0.4 %ID/g
tissue uptake at 0.5 min [1, 14]: 0.53 %ID/g
tissue uptake at 1 min [1, 14]: 0.42 %ID/g
tissue uptake at 0.05 h ([1]; spleen, 3 min, read-out: biodistribution spleen): 0.26 %ID/g
tissue uptake at 5 min [1, 14]: 0.2 %ID/g
tissue uptake at 10 min [1, 14]: 0.15 %ID/g
tissue uptake at 0.5 min [1, 15]: 0.14 %ID/g
tissue uptake at 1 min [1, 15]: 0.28 %ID/g
tissue uptake at 0.05 h ([1]; stomach, 3 min, read-out: biodistribution stomach): 0.32 %ID/g
tissue uptake at 5 min [1, 15]: 0.11 %ID/g
tissue uptake at 10 min [1, 15]: 0.12 %ID/g
tissue uptake at 0.5 min [1, 16]: 0.68 %ID/g
tissue uptake at 1 min [1, 16]: 0.56 %ID/g
tissue uptake at 0.05 h ([1]; tail, 3 min, read-out: biodistribution tail): 0.8 %ID/g
tissue uptake at 5 min [1, 16]: 0.73 %ID/g
tissue uptake at 10 min [1, 16]: 0.83 %ID/g
tissue uptake at 0.5 min [1, 17]: 0.38 %ID/g
tissue uptake at 1 min [1, 17]: 0.35 %ID/g
tissue uptake at 0.05 h ([1]; thymus, 3 min, read-out: biodistribution thymus): 0.27 %ID/g
tissue uptake at 5 min [1, 17]: 0.19 %ID/g
tissue uptake at 10 min [1, 17]: 0.14 %ID/g
tissue uptake at 0.5 min [1, 18]: 1.42 %ID/g
tissue uptake at 1 min [1, 18]: 1.15 %ID/g
tissue uptake at 0.05 h ([1]; thyroid, 3 min, read-out: biodistribution thyroid): 1.17 %ID/g
tissue uptake at 5 min [1, 18]: 0.59 %ID/g
tissue uptake at 10 min [1, 18]: 0.4 %ID/g
tissue uptake at 0.5 min [1, 19]: 0.27 %ID/g
tissue uptake at 1 min [1, 19]: 0.34 %ID/g
tissue uptake at 0.05 h ([1]; total git, 3 min, read-out: biodistribution tot GIT): 0.59 %ID/g
tissue uptake at 5 min [1, 19]: 0.79 %ID/g
tissue uptake at 10 min [1, 19]: 1.22 %ID/g
biodistribution blood ([1]; 3 min): 1.16 % Injected dose per gram
biodistribution liver ([1]; 3 min): 1.54 % Injected dose per gram
biodistribution bone ([2]; 1 min): 5.07 % ID
biodistribution kidney ([2]; 1 min): 9.28 % ID
biodistribution liver ([2]; 1 min): 15.45 % ID
biodistribution muscle ([2]; 1 min): 22.75 % ID
biodistribution skin ([2]; 1 min): 11.72 % ID
biodistribution spleen ([2]; 1 min): 0.29 % ID
biodistribution bone ([2]; 3 min): 3.30 % ID
biodistribution kidney ([2]; 3 min): 5.26 % ID
biodistribution liver ([2]; 3 min): 24.21 % ID
biodistribution muscle ([2]; 3 min): 12.70 % ID
biodistribution skin ([2]; 3 min): 13.76 % ID
biodistribution spleen ([2]; 3 min): 0.14 % ID
biodistribution bone ([2]; 5 min): 2.83 % ID
biodistribution kidney ([2]; 5 min): 4.37 % ID
biodistribution liver ([2]; 5 min): 25.79 % ID
biodistribution muscle ([2]; 5 min): 12.14 % ID
biodistribution skin ([2]; 5 min): 13.02 % ID
biodistribution spleen ([2]; 5 min): 0.1 % ID
biodistribution bone ([2]; 10 min): 2.20 % ID
biodistribution kidney ([2]; 10 min): 1.91 % ID
biodistribution liver ([2]; 10 min): 22.77 % ID
biodistribution muscle ([2]; 10 min): 26.13 % ID
biodistribution skin ([2]; 10 min): 8.47 % ID
biodistribution spleen ([2]; 10 min): 0.06 % ID
biodistribution bone ([2]; 30 min): 0.50 % ID
biodistribution kidney ([2]; 30 min): 0.57 % ID
biodistribution liver ([2]; 30 min): 10.11 % ID
biodistribution muscle ([2]; 30 min): 1.80 % ID
biodistribution skin ([2]; 30 min): 1.56 % ID
biodistribution spleen ([2]; 30 min): 0.01 % ID
biodistribution kidney ([2]; 120 min): 0.05 % ID
biodistribution liver ([2]; 120 min): 0.88 % ID
biodistribution muscle ([2]; 120 min): 0.48 % ID
biodistribution skin ([2]; 120 min): 0.24 % ID
biodistribution spleen ([2]; 120 min): 0.01 % ID
SMILES: O=C(O)CN(CCN(CC(=O)O)CC(=O)Nc1ccccc1O)CC(=O)Nc1ccccc1O [Compound 1]
